Reference: patent US20160324992A1, “IDENTIFICATION AND TREATMENT OF VULNERABLE PLAQUES” (OTTAWA HEART INSTITUTE RESEARCH CORPORATION, priority 2015, published 2016)
Entries after “also recorded” stand apart in the source; their conditions may differ.

How the values were obtained:
Serum stability testing = type: in vitro ADME; conditions: 37° C., 24 hours, HPLC
Protocol: Serum stability testing of 7-^123I-O-Nec-1. Serum stability testing was carried out by mixing 25 μL of 7-^123I-O-Nec-1 (5) and 100 μL of rat serum at 37 ° C. for 24 hours. […] cold EtOH was added afterwards, and the mixture was centrifuged at 2500 ×g at 4° C. for 15 minutes to precipitate proteins. The supernatant was injected into HPLC.

[1] = Biodistribution in C57BL/6 mice; type: in vivo; conditions: for organ uptake: Blood / organ uptake: Brain / organ uptake: Femur / organ uptake: Heart / organ uptake: Intestine / organ uptake: Kidney / organ uptake: Liver / organ uptake: Lung / organ uptake: Muscle / organ uptake: Ovaries/testis / organ uptake: Spleen / organ uptake: Stomach / organ uptake: Thyroid / organ uptake: Urine: female C57BL/6 mice, i.v. 5.3-6.7 MBq, mean ± SD, n = 3
Protocol: (§1) Biodistribution studies were carried out on C57BL/6 mice weighing 19-21 g and Sprague Dawley rats weighing 400-560 g (Charles River Laboratories, Mass., USA). On the day of experimentation, the animals were anesthetized and maintained under isofluorane during the injection. A tail vein catheter was inserted, 5.3-6.7 MBq of 7-^123I-O-Nec-1 was administered to the mice and 3.1-3.3 MBq of 7-^123I-O-Nec-1 was injected into the rats. The animals were sacrificed at 1 hr or 2 hr post injection (p.i.) (n=3 per group). The heart, liver, kidney, muscle, femur, spleen, blood, brain, intestine, lung, stomach, urine/bladder, ovaries/testes and thyroid were extracted, weighed and analyzed for total gamma counts (Wizard 2 2480 Automatic Gamma Counter, Perkin Elmer). The tissue uptake was decay corrected, and the percentage of injected dose per gram (% ID/g) was calculated.

[2] = Biodistribution in Sprague-Dawley rats; type: in vivo
Protocol: as §1

[3] = system: atherosclerotic lesions in ApoE−/− mice; experiment: Ex vivo autoradiography of aorta, en face and Oil Red O comparison; type: in vivo, mouse; conditions: for localization of the tracer in the aorta (in words): ApoE−/− mice with established lesions, 2 hours after i.v. injection, en face aortic arch; for correlation between lesion area measured by tracer autoradiography and ORO / en face (in words): ApoE−/− mice, ex vivo
Text: Radiochemistry and ex vivo autoradiography study with ApoE^−/− mice. The tracer ^123I-Nec-1 (7-^123I-Nec-1) was synthesized by a Cu(I) catalyzed direct halogen exchange reaction with the precursor 7-Br-Nec-1 and Na^123I. Eight week-old female apolipoprotein E knockout (Apo E^−/−) mice were purchased from Charles River Laboratories and fed either a chow or western diet (TD.10885, Harlan Laboratories) for 2 months (total n=6 mice). 7-^123I-O-Nec-1 (37.0-55.5 MBq) was administrated intravenously into the mice under anesthetic. After 2 hr, the mice were euthanized and perfused with PBS followed by 10% formalin via left ventricle cannulation. Aorta was dissected from heart at the base using a dissecting microscope following removal of surrounding fat and connective tissue. En face specimens were immediately exposed to super resolution phosphor screens in an autoradiography cassette. After overnight exposure at room temperature, the screens were scanned with a Cyclone Phosphor Imager (Perkin Elmer, Downers Grove, Ill.). Images were analyzed using OptiQuant™ 5.0 software. The regions of interest (ROI) were drawn around the lesions on the aortic arch, and the counts in Digital Light Unit (DLU) and surface areas in mm^2 were measured. The DLU was converted to activity in μCi using a set of calibration standards with known activities, which were exposed and scanned on the same screen used for the aorta samples, as previously described (Zhao et al, 2007; Matter et al., 2006). The percentage injected dose (% ID) was calculated from dividing the activity (pCi) of the lesion by the injected activity. Activity density in % ID/m^2 was calculated and normalized by animal body weight to get % ID×kg/m^2. The areas of the lesions and the whole aortic arch in mm^2 were also recorded using the OptiQuant™ 5.0 software, and the percentage of lesion within the area of the aorta vessel wall was calculated.
Ex vivo autoradiography study with ApoE^−/− mice. Eight week-old female apolipoprotein E knockout (Apo E^−/−) mice were purchased from Charles River Laboratories (Charles River, Canada) and fed either a chow or western diet (TD.10885, Harlan Laboratories) for 2 months (n=3 per group). […] 7-^123I-O-Nec-1 (37.0-55.5 MBq) was administrated intravenously into the mice under anesthetic. After 2 hr, the mice were euthanized in a CO2 chamber. Using a Gilson Minipuls 2 peristaltic pump, the mice were perfused with 20 mL phosphate buffered saline (PBS) followed by 10 mL of 10% formalin via left ventricle cannulation. Perfusate was drained from a cut within the right atrium. Aorta was dissected from heart at the base using a dissecting microscope following removal of surrounding fat and connective tissue. For en face experiments aortic tissues were flattened by a longitudinal cut through one side of the aortic wall cutting through the carotids and the innominant artery until the aorta was split forming a Y-shaped structure.
The uptake and distribution of the tracer on aortic tissue was studied using digital autoradiography method. En face specimens were immediately exposed to super resolution phosphor screens in a Fisher Biotech autoradiography cassette. After overnight exposure at room temperature, the screens were scanned with a Cyclone Phosphor Imager (Perkin Elmer, Downers Grove, Ill.). Images were analyzed using OptiQuant™ 5.0 software. The regions of interest (ROI) were drawn around the lesions on the aortic arch, and the counts in Digital Light Unit (DLU) and surface areas in mm^2 were measured. The DLU was converted to activity in pCi using a set of calibration standards with known activities, which were exposed and scanned on the same screen used for the aorta samples. The percentage injected dose (% ID) was calculated from dividing the activity (pCi) of the lesion by the injected activity. Activity density in % ID/m^2 was calculated and normalized by animal body weight to get % ID×kg/m^2. […]

[4] = male Sprague-Dawley rats, 2 hr p.i., i.v. 3.1-3.3 MBq, mean ± SD, n = 3

## CN1C(=O)NC(Cc2c[nH]c3c([123I])cccc23)C1=O (centres unmarked) [7-^123I-O-Nec-1, 5-((7-lodo (^123I)-1H-indol-3-yl)methyl)-3-methylimidazolidine-2,4-dione]
Serum stability testing
  stability in rat serum: stable in serum, no de-iodination or degradation was found; also recorded: stable in vitro in serum
[1]; biodistribution in C57BL/6 mice, i.v.
  clearance of the tracer (in words): fast renal and liver/gastrointestinal clearance; also recorded: excreted rapidly from the renal system
[1]; 1 hr p.i.
  organ uptake: Blood: 3.149 ± 0.547 % ID/g
  organ uptake: Brain: 0.429 ± 0.170 % ID/g
  organ uptake: Femur: 1.167 ± 0.214 % ID/g
  organ uptake: Heart: 1.868 ± 0.519 % ID/g
  organ uptake: Intestine: 16.578 ± 1.224 % ID/g
  organ uptake: Kidney: 4.296 ± 1.084 % ID/g
  organ uptake: Liver: 4.030 ± 0.824 % ID/g
  organ uptake: Lung: 3.248 ± 0.788 % ID/g
  organ uptake: Muscle: 0.859 ± 0.278 % ID/g
  organ uptake: Ovaries/testis: 2.349 ± 0.570 % ID/g
  organ uptake: Spleen: 2.657 ± 0.390 % ID/g
  organ uptake: Stomach: 19.294 ± 2.556 % ID/g
  organ uptake: Thyroid: 7.344 ± 1.469 % ID/g
  organ uptake: Urine: 103.153 ± 41.005 % ID/g
[1]; 2 hr p.i.
  organ uptake: Blood: 3.136 ± 1.024 % ID/g
  organ uptake: Brain: 0.640 ± 0.847 % ID/g
  organ uptake: Femur: 1.189 ± 0.205 % ID/g
  organ uptake: Heart: 1.405 ± 0.484 % ID/g
  organ uptake: Intestine: 25.573 ± 19.206 % ID/g
  organ uptake: Kidney: 3.841 ± 0.429 % ID/g
  organ uptake: Liver: 2.562 ± 0.916 % ID/g
  organ uptake: Lung: 2.975 ± 1.025 % ID/g
  organ uptake: Muscle: 0.723 ± 0.307 % ID/g
  organ uptake: Ovaries/testis: 1.462 ± 0.184 % ID/g
  organ uptake: Spleen: 2.173 ± 0.728 % ID/g
  organ uptake: Stomach: 25.711 ± 4.877 % ID/g
  organ uptake: Thyroid: 18.387 ± 14.764 % ID/g
  organ uptake: Urine: 80.627 ± 12.850 % ID/g
[1]; normal C57BL/6 mice, thyroid and stomach uptake 1 hr to 2 hr p.i.
  in vivo de-iodination (in words): de-iodination over time; also recorded: some degree of in vivo de-iodination; also recorded: limited in vivo de-iodination
[2]; biodistribution in Sprague-Dawley rats, i.v., 2 hr p.i.
  clearance of the tracer (in words): fast renal and liver/gastrointestinal clearance; also recorded: excreted rapidly from the renal system
[2]; [4]
  organ uptake: Blood: 0.153 ± 0.031 % ID/g
  organ uptake: Brain: 0.023 ± 0.004 % ID/g
  organ uptake: Femur: 0.052 ± 0.009 % ID/g
  organ uptake: Heart: 0.098 ± 0.007 % ID/g
  organ uptake: Intestine: 0.867 ± 0.062 % ID/g
  organ uptake: Kidney: 0.236 ± 0.016 % ID/g
  organ uptake: Liver: 0.226 ± 0.028 % ID/g
  organ uptake: Lung: 0.143 ± 0.013 % ID/g
  organ uptake: Muscle: 0.048 ± 0.005 % ID/g
  organ uptake: Ovaries/testis: 0.089 ± 0.009 % ID/g
  organ uptake: Spleen: 0.106 ± 0.009 % ID/g
  organ uptake: Stomach: 1.685 ± 0.395 % ID/g
  organ uptake: Thyroid: 1.407 ± 0.189 % ID/g
  organ uptake: Urine: 2.513 ± 0.282 % ID/g
[2]; normal Sprague-Dawley rats
  in vivo de-iodination (in words): some degree of in vivo de-iodination
[3]; 4 month old mice, 37.0-55.5 MBq i.v., 2 hr, n=3 per group
  aortic lesion uptake in HFD-fed ApoE−/− mice versus chow-fed ApoE−/− and control mice (in words): significantly higher tracer uptake
[3]; 4 month old mice, 2 hr p.i., p=0.3
  lesion uptake in chow-fed ApoE−/− mice versus aortic arch uptake of control mice (in words): similar; also recorded: not statistically significant
[3]; listed as 123I-Nec-1
  localization of the tracer in the aorta (in words): primarily localized to areas of plaque accumulation
  correlation between lesion area measured by tracer autoradiography and ORO / en face (in words): significant correlation
[3]; listed as 123INec-1
  localization of the tracer in the aorta (in words): specifically localizes to advanced atherosclerotic lesion areas
[3]
  correlation between lesion area measured by tracer autoradiography and ORO / en face (in words): good correlation
